Values quoted from earlier work as cited in patent US9675603B2, “Solid pharmaceutical compositions of ppary modulator” (InteKrin Therapeutics, Inc., priority 2010, dated 2017).

- Solubility (in aqueous solvents and in most organic solvents): sparingly soluble
Compound: O=S(=O)(Nc1cc(Cl)c(Oc2cnc3ccccc3c2)c(Cl)c1)c1ccc(Cl)cc1Cl.O=S(=O)(O)c1ccccc1 [besylate salt of compound 101, 2,4-Dichloro-N-[3,5-dichloro-4-(quinolin-3-yloxy)-phenyl]-benzenesulfonamide benzenesulfonate salt]
- Stability and hygroscopic properties (compared to other salts of compound 101, U.S. Pat. No. 7,223,761 B2): superior stability and hygroscopic properties
